Measurements: patent US20140107568A1, “METHOD OF DETERMINING AN INJECTED DOSE BASED ON A KNOWN ORAL DOSE” (ANTARES PHARMA, INC., priority 2012, published 2014)

From the text: An algorithm was developed to correlate a known oral dose of methotrexate to a jet injector dose. Table 1 illustrates the calculated correlation between oral doses and needle-assisted jet injector doses of methotrexate. The second column illustrates the precise subcutaneous dose calculated based on the algorithm, described in detail below. The third column represents the administrable dose, based on commercially available doses, closest in value to the precise calculated dose.
Based on the data set forth in table 1, a line equation of y=mx+b was developed to correlate an oral dose of methotrexate to an equivalent dose for use with a jet injector. In the present equation, illustrated by the graph shown in FIG. 1, the slope, m, was determined to be 0.6101 and a y-intercept, b, to be 2.9274. The correlation coefficient of the line, R^2, is 0.9594.

With `CN(Cc1cnc2nc(N)nc(N)c2n1)c1ccc(C(=O)N[C@@H](CCC(=O)O)C(=O)O)cc1` [methotrexate] the “slope, m, of line equation y=mx+b correlating oral dose to equivalent jet injector dose” value was 0.6101 and the “y-intercept, b, of line equation y=mx+b correlating oral dose to equivalent jet injector dose” value was 2.9274.
